Measured values from patent US12576093B2, “Pharmaceutical composition for subcutaneous administration” (MANNKIND CORPORATION, priority 2019, dated 2026).
Values joined by “and” are separate entries in the source; they are usually repeats but may differ in a detail not shown here. Equal entries are not always repeated.

How the values were obtained:
[1] = oral; cited from earlier work
[2] = Pharmacokinetics after 24-hour subcutaneous infusion via fluid delivery device in male Beagle dogs (plasma, LC-MS/MS); conditions: for AUC(0-t): AUClast; for MRT last: MRTlast
[3] = Group 1, SC infusion 40 mg/animal, individual animals
[4] = SC infusion 76 mg/animal, individual animals
[5] = dogs, 40 mg/24 h and 76 mg/24 h SC infusion, both dosages
[6] = male, Beagle, dog, in vivo, sc, 3.21 mg/kg, Group 1, SC infusion, dose 3.21 mg/kg, mean
[7] = male, Beagle, dog, in vivo, sc, 5.45 mg/kg, Group 2, SC infusion, dose 5.45 mg/kg, mean
[8] = male, Beagle, dog, in vivo, sc, 40 mg, Group 1, SC infusion 40 mg/animal, mean
[9] = male, Beagle, dog, in vivo, sc, 40 mg/animal, Plasma concentration of CBD, Group 1, SC infusion 40 mg/animal, individual animals, BLOQ = below 1 ng/mL
[10] = male, Beagle, dog, in vivo, sc, 40 mg/animal, Plasma concentration of CBD, Group 1, SC infusion 40 mg/animal, mean (BLOQ samples excluded)
[11] = male, Beagle, dog, in vivo, sc, 76 mg, SC infusion 76 mg/animal, mean
[12] = male, Beagle, dog, in vivo, sc, 76 mg/animal, Plasma concentration of CBD, SC infusion 76 mg/animal, individual animals, BLOQ = below 1 ng/mL
[13] = male, Beagle, dog, in vivo, sc, 76 mg/animal, Plasma concentration of CBD, SC infusion 76 mg/animal, mean (BLOQ samples excluded)

C=C(C)[C@@H]1CCC(C)=C[C@H]1c1c(O)cc(CCCCC)cc1O [CBD, Cannabidiol]
Fraction lost in the liver through the digestion [1]: approximately 94%
AUClast [2, 3]: 363 ng·h/mL and 19.9 ng·h/mL and 127 ng·h/mL and 371 ng·h/mL
Cmax [2, 3]: 14.2 ng/mL (2×) and 5.34 ng/mL and 5.83 ng/mL
MRTlast [2, 3]: 26.0 h and 3.61 h and 16.3 h
tmax [2, 3]: 30.0 hr (3×) and 3.00 hr
Cmax ([2]; Group 1, SC infusion, dose 3.21 mg/kg, mean): 9.92 ng(mL
Cmax ([2]; Group 2, SC infusion, dose 5.45 mg/kg, mean): 11.7 ng(mL
AUClast [2, 4]: 217 ng·h/mL and 493 ng·h/mL and 129 ng·h/mL and 372 ng·h/mL
Cmax [2, 4]: 10.3 ng/mL and 17.5 ng/mL and 5.24 ng/mL and 13.6 ng/mL
MRTlast [2, 4]: 30.4 h and 18.9 h and 21.5 h
tmax [2, 4]: 24.0 hr (2×) and 2.00 hr and 18.0 hr
Absorption: first detection of CBD levels in blood [2, 5]: detected within an hour of the beginning of infusion
Elimination: CBD detectability after end of infusion [2, 5]: still detectable 24 h after completion of fluid delivery device infusion
Constancy of CBD concentration in the blood ([2]; group 1 (40 mg CBD/animal) and group 2 (76 mg CBD/animal), FIGS. 24 and 25): constant concentration of CBD in the blood with a minimal variation is reached after few hours
AUC(0-t) [2, 6]: 221 ng·h/mL
MRT last [2, 6]: 17.6 h
tmax ([2]; male, Beagle, dog, in vivo, sc, 3.21 mg/kg, Tmax, Group 1, SC infusion, dose 3.21 mg/kg, mean): 23.3 h
AUC(0-t) [2, 7]: 303 ng·h/mL
MRT last [2, 7]: 24.3 h
tmax ([2]; male, Beagle, dog, in vivo, sc, 5.45 mg/kg, Tmax, Group 2, SC infusion, dose 5.45 mg/kg, mean): 17 h
AUC(0-t) [2, 8]: 221 ng·h/mL
Cmax ([2]; male, Beagle, dog, in vivo, sc, 40 mg, Cmax, Group 1, SC infusion 40 mg/animal, mean): 9.92 ng/mL
MRT last [2, 8]: 17.6 h
tmax ([2]; male, Beagle, dog, in vivo, sc, 40 mg, tmax, Group 1, SC infusion 40 mg/animal, mean): 23.3 h
concentration at 0.083 h ([2]; male, Beagle, dog, in vivo, sc, 40 mg/animal, Plasma concentration of CBD, Group 1, SC infusion 40 mg/animal, 0.083 hr, individual animals, BLOQ = below 1 ng/mL): 5.76 ng/mL
concentration at 0.5 h ([2]; male, Beagle, dog, in vivo, sc, 40 mg/animal, Plasma concentration of CBD, Group 1, SC infusion 40 mg/animal, 0.5 hr, mean (BLOQ samples excluded)): 3.28 ng/mL
concentration at 0.75 h [2, 9]: 2.83 ng/mL
concentration at 0.75 h [2, 10]: 2.45 ng/mL
concentration at 1 h [2, 10]: 2.63 ng/mL
concentration at 2 h [2, 10]: 3.72 ng/mL
concentration at 3 h [2, 10]: 7.36 ng/mL
concentration at 4 h [2, 10]: 4.1 ng/mL
concentration at 5 h [2, 10]: 5.11 ng/mL
concentration at 6 h [2, 10]: 6.12 ng/mL
concentration at 7 h [2, 10]: 5.53 ng/mL
concentration at 8 h [2, 9]: 5.06 ng/mL
concentration at 8 h [2, 10]: 6.03 ng/mL
concentration at 10 h [2, 10]: 5.92 ng/mL
concentration at 12 h [2, 9]: 4.47 ng/mL
concentration at 12 h [2, 10]: 5.12 ng/mL
concentration at 18 h [2, 9]: 3.31 ng/mL
concentration at 24 h [2, 9]: 9.48 ng/mL
concentration at 24 h [2, 10]: 8.82 ng/mL
concentration at 30 h [2, 10]: 11.4 ng/mL
concentration at 36 h ([2]; male, Beagle, dog, in vivo, sc, 40 mg/animal, Plasma concentration of CBD, Group 1, SC infusion 40 mg/animal, 36 hr, individual animals, BLOQ = below 1 ng/mL): 9.05 ng/mL
concentration at 36 h ([2]; male, Beagle, dog, in vivo, sc, 40 mg/animal, Plasma concentration of CBD, Group 1, SC infusion 40 mg/animal, 36 hr, mean (BLOQ samples excluded)): 7.59 ng/mL
concentration at 48 h ([2]; male, Beagle, dog, in vivo, sc, 40 mg/animal, Plasma concentration of CBD, Group 1, SC infusion 40 mg/animal, 48 hr, individual animals, BLOQ = below 1 ng/mL): 4.2 ng/mL
concentration at 48 h ([2]; male, Beagle, dog, in vivo, sc, 40 mg/animal, Plasma concentration of CBD, Group 1, SC infusion 40 mg/animal, 48 hr, mean (BLOQ samples excluded)): 5.15 ng/mL
AUC(0-t) [2, 11]: 303 ng·h/mL
Cmax ([2]; male, Beagle, dog, in vivo, sc, 76 mg, Cmax, SC infusion 76 mg/animal, mean): 11.7 ng/mL
MRT last ([2]; male, Beagle, dog, in vivo, sc, 76 mg, SC infusion 76 mg/animal, individual animals): 26.5 h
MRT last [2, 11]: 24.3 h
tmax ([2]; male, Beagle, dog, in vivo, sc, 76 mg, tmax, SC infusion 76 mg/animal, mean): 17 h
concentration at 1 h [2, 12]: 3.73 ng/mL
concentration at 1 h [2, 13]: 5.31 ng/mL
concentration at 2 h [2, 12]: 3.69 ng/mL
concentration at 2 h [2, 13]: 4.97 ng/mL
concentration at 3 h [2, 13]: 4.38 ng/mL
concentration at 4 h [2, 13]: 3.31 ng/mL
concentration at 5 h [2, 12]: 2.42 ng/mL
concentration at 5 h [2, 13]: 2.17 ng/mL
concentration at 6 h [2, 13]: 5.35 ng/mL
concentration at 7 h [2, 13]: 4.78 ng/mL
concentration at 8 h [2, 13]: 5.14 ng/mL
concentration at 10 h [2, 13]: 4.19 ng/mL
concentration at 12 h [2, 13]: 6.03 ng/mL
concentration at 18 h [2, 13]: 5.93 ng/mL
concentration at 24 h [2, 13]: 9.68 ng/mL
concentration at 30 h [2, 13]: 9.04 ng/mL
concentration at 36 hr ([2]; male, Beagle, dog, in vivo, sc, 76 mg/animal, Plasma concentration of CBD, SC infusion 76 mg/animal, 36 hr, mean (BLOQ samples excluded)): 6.04 ng/mL
concentration at 48 hr ([2]; male, Beagle, dog, in vivo, sc, 76 mg/animal, Plasma concentration of CBD, SC infusion 76 mg/animal, 48 hr, mean (BLOQ samples excluded)): 8.32 ng/mL
